# Data taken from article PMC4515243, “Phase 1 pharmacokinetic study of the oral pan-AKT inhibitor MK-2206 in Japanese patients with advanced solid tumors” (Cancer Chemotherapy and Pharmacology, 2015).
# Where two headings read alike, the source gives them in different places.
# Experiments:
# [1] = system: AKT3; parameters: method as in ref 4 = [4]; 4. Lu W, Defeo-Jones D, Davis L et al (2009) In vitro and in vivo antitumor activities of MK-2206, a new allosteric Akt inhibitor [abstract #3714]. In: Proceedings of the 100th annual meeting of the A; details: several cancer cell lines; cited from earlier work
# [2] = system: in vivo preclinical models; parameters: method as in PMID 20571069; details: single agent; cited from earlier work
# [3] = system: AKT pathway; parameters: method as in PMID 25239610; details: continuous QOD and intermittent QW dosing, serially obtained tumor and platelet-rich plasma; cited from earlier work
# [4] = system: AKT2; parameters: method as in ref 4 = [4]; 4. Lu W, Defeo-Jones D, Davis L et al (2009) In vitro and in vivo antitumor activities of MK-2206, a new allosteric Akt inhibitor [abstract #3714]. In: Proceedings of the 100th annual meeting of the A; details: several cancer cell lines; cited from earlier work
# [5] = system: AKT2; parameters: method as in ref 3 = [3]; 3. Yan L (2009) MK-2206: a potent oral allosteric AKT inhibitor [abstract #DDT01-1]. In: Proceedings of the 100th annual meeting of the American association for cancer research, Denver, CO, 18–22 Apr; details: purified recombinant AKT2, in vitro; cited from earlier work
# [6] = non-Japanese patients; cited from earlier work
# [7] = system: advanced solid tumors; test: tumor response according to RECIST version 1.0 in Japanese patients; format: in vivo, human
# Description: The anti-tumor activity was evaluated at baseline and every 6 weeks according to the Response Evaluation Criteria In Solid Tumors (RECIST), version 1.0.
# [8] = system: non-Japanese patients with advanced solid tumors; details: cited from earlier work
# [9] = system: AKT1; parameters: method as in ref 3 = [3]; 3. Yan L (2009) MK-2206: a potent oral allosteric AKT inhibitor [abstract #DDT01-1]. In: Proceedings of the 100th annual meeting of the American association for cancer research, Denver, CO, 18–22 Apr; details: purified recombinant AKT1, in vitro; cited from earlier work
# [10] = system: AKT3; parameters: method as in ref 3 = [3]; 3. Yan L (2009) MK-2206: a potent oral allosteric AKT inhibitor [abstract #DDT01-1]. In: Proceedings of the 100th annual meeting of the American association for cancer research, Denver, CO, 18–22 Apr; details: purified recombinant AKT3, in vitro; cited from earlier work
# [11] = plasma pharmacokinetics in Japanese patients (HPLC-MS/MS); format: in vivo, human; details: for AUC(0-t) / concentration at 48 h / Cmax / Tmax / half-life: human, plasma, oral; for half-life: read-out: Apparent terminal t½ (converted)
# Description: Blood samples for the QOD dosing schedule were collected for PK analyses just before and 2, 4, 6, 10, 24, and 48 h after MK-2206 dosing on days 1 and 27 of Cycle 1. After the final dose of MK-2206 during Cycle 1, blood samples were drawn 96, 144, and 192 h postdose during the 1-week rest period. Samples were also drawn directly before MK-2206 treatment on days 7, 15, and 21. Blood samples for the QW dosing schedule were collected for PK analyses just before and 2, 4, 6, 10, 24, 48, and 96 h after MK-2206 dosing on days 1 and 22 of Cycle 1. After the final dose of MK-2206 in Cycle 1, blood samples were drawn 168 and 240 h postdose during the 1-week rest period. Samples were also drawn directly before MK-2206 treatment on days 8 and 15. The blood samples were centrifuged, and the plasma was separated and stored at −20 °C. The plasma concentrations were analyzed using high-performance liquid chromatography with tandem mass spectroscopy (HPLC–MS/MS) at Merck Research Labs, West Point, PA.
# PK differences were observed after exposure to MK-2206 in Japanese patients, compared with non-Japanese patients. Consequently, the PK data were analyzed using t tests and nonparametric Wilcoxon–Mann–Whitney tests because of potential differences in variance. […] No differences in Tmax were observed.
structure (smiles),measurement,setting,value
NC1(c2ccc(-c3nc4ccn5c(=O)[nH]nc5c4cc3-c3ccccc3)cc2)CCC1 [MK-2206],potency on AKT3 activity relative to AKT1,[1],two to sixfold less potently
same,anti-tumor activity,[2],showed anti-tumor activity
same,AKT pathway blockade,[3],Significant AKT pathway blockade
same,potency on AKT2 activity relative to AKT1,[4],two to sixfold less potently
same,IC50,[5],12 nM
same,apparent terminal half-life (t½),[6],60 to 90 h
same,terminal elimination half-life,[6],60 to 80 h
same,tumor responses (RECIST 1.0),[7]; 24 patients evaluated,no tumor responses
same,patients with SD lasting longer than 4 months,[7]; all cohorts,6 of the 24
same,"patients with SD lasting longer than 4 months, percent",[7]; all cohorts,25%
same,patients with SD for 6 months or longer,"[7]; one mediastinal tumor, one esophageal cancer",two patients
same,patients with stable disease (SD) for 4 months or longer,"[7]; two cervical cancer, one leiomyosarcoma, one breast cancer",Four patients
same,patients who experienced a DLT,"[8]; 60 mg QOD, grade 3 skin rash",One of 20
same,"patients who experienced a DLT, percent",[8]; 60 mg QOD,5.0%
same,patients who experienced DLTs,"[8]; 200 mg QW, grade 3 skin rash (three), grade 3 dermatitis acneiform (one)",Four of 17
same,"patients who experienced DLTs, percent",[8]; 200 mg QW,23.5%
same,maximum tolerated dose (MTD),[8]; QOD dosing schedule,60 mg/day
same,maximum tolerated dose (MTD),[8]; QW dosing schedule,200 mg/day
same,IC50,[10],65 nM
same,Tmax First dose,"[11]; 45 mg QOD (n = 3), Day 1, median (min–max)",4.0 (4.0–6.0) h
same,Apparent terminal t½,"[11]; 45 mg QOD (n = 3), harmonic mean ± pseudo SD",79.6 ± 8.5 h
same,GMR C48-h,"[11]; 45 mg QOD, geometric mean ratio CDay27/CDay1",5.02
same,Tmax Last dose,"[11]; 60 mg QOD (n = 9), Day 27, median (min–max)",6.0 (2.0–10.0) h
same,GMR C48-h,"[11]; 60 mg QOD, geometric mean ratio CDay27/CDay1",3.68
same,GMR C48-h,"[11]; 135 mg QW, geometric mean ratio CDay22/CDay1",1.25
same,GMR C48-h,"[11]; 200 mg QW, geometric mean ratio CDay22/CDay1",1.78
same,"mean exposure values (Cmax and AUC), Japanese versus non-Japanese patients","[11]; 45- and 60-mg QOD and 200-mg QW cohorts, higher",1.4–1.9 fold
same,"mean exposure values (Cmax and AUC), Japanese versus non-Japanese patients","[11]; 135-mg QW cohort, lower",0.7–1.3
same,"AUC, Cmax and Ctrough versus non-Japanese patients","[11]; 200-mg QW cohort, P < 0.05",significantly higher
same,AUC(0-t),"[11]; 45 mg, 45 mg QOD (n = 3), Day 1, AUC0–48h, geometric mean (coefficient of variation), read-out: AUCt First dose",1.85 µM·h
same,concentration at 48 h,"[11]; 45 mg, 45 mg QOD (n = 3), Day 1, geometric mean (coefficient of variation), read-out: C48-h First dose",28.8 nM
same,Cmax,"[11]; 45 mg, 45 mg QOD (n = 3), Day 1, geometric mean (coefficient of variation), read-out: Cmax First dose",60.5 nM
same,AUC(0-t),"[11]; 45 mg, 45 mg QOD (n = 3), Day 27, AUC0–48h, geometric mean (coefficient of variation), read-out: AUCt Last dose",8.49 µM·h
same,concentration at 48 h,"[11]; 45 mg, 45 mg QOD (n = 3), Day 27, geometric mean (coefficient of variation), read-out: C48-h Last dose",144 nM
same,Cmax,"[11]; 45 mg, 45 mg QOD (n = 3), Day 27, geometric mean (coefficient of variation), read-out: Cmax Last dose",214 nM
same,AUC(0-t),"[11]; 60 mg, 60 mg QOD (n = 9), Day 1, AUC0–48h, geometric mean (coefficient of variation), read-out: AUCt First dose",2.72 µM·h
same,concentration at 48 h,"[11]; 60 mg, 60 mg QOD (n = 9), Day 1, geometric mean (coefficient of variation), read-out: C48-h First dose",40.6 nM
same,Cmax,"[11]; 60 mg, 60 mg QOD (n = 9), Day 1, geometric mean (coefficient of variation), read-out: Cmax First dose",95.9 nM
same,AUC(0-t),"[11]; 60 mg, 60 mg QOD (n = 9), Day 27, AUC0–48h, geometric mean (coefficient of variation), read-out: AUCt Last dose",9.69 µM·h
same,concentration at 48 h,"[11]; 60 mg, 60 mg QOD (n = 9), Day 27, geometric mean (coefficient of variation), read-out: C48-h Last dose",152 nM
same,Cmax,"[11]; 60 mg, 60 mg QOD (n = 9), Day 27, geometric mean (coefficient of variation), read-out: Cmax Last dose",277 nM
same,Tmax,"[11]; 60 mg, QOD dosing (45 or 60 mg), Japanese patients, read-out: median Tmax",4 to 6 h
same,AUC(0-t),"[11]; 135 mg, 135 mg QW (n = 3), Day 1, AUC0–168h, geometric mean (coefficient of variation), read-out: AUCt First dose",9.68 µM·h
same,concentration at 48 h,"[11]; 135 mg, 135 mg QW (n = 3), Day 1, geometric mean (coefficient of variation), read-out: C48-h First dose",83.2 nM
same,Cmax,"[11]; 135 mg, 135 mg QW (n = 3), Day 1, geometric mean (coefficient of variation), read-out: Cmax First dose",234 nM
same,AUC(0-t),"[11]; 135 mg, 135 mg QW (n = 3), Day 22, AUC0–168h, geometric mean (coefficient of variation), read-out: AUCt Last dose",12.8 µM·h
same,concentration at 48 h,"[11]; 135 mg, 135 mg QW (n = 3), Day 22, geometric mean (coefficient of variation), read-out: C48-h Last dose",104 nM
same,Cmax,"[11]; 135 mg, 135 mg QW (n = 3), Day 22, geometric mean (coefficient of variation), read-out: Cmax Last dose",244 nM
same,AUC(0-t),"[11]; 135 mg, 135 mg QW, Day 22, read-out: AUC0–48h",12.8 µM·h
same,AUC(0-t),"[11]; 200 mg, 200 mg QW (n = 9), Day 1, AUC0–168h, geometric mean (coefficient of variation), read-out: AUCt First dose",24.3 µM·h
same,concentration at 48 h,"[11]; 200 mg, 200 mg QW (n = 9), Day 1, geometric mean (coefficient of variation), read-out: C48-h First dose",186 nM
same,Cmax,"[11]; 200 mg, 200 mg QW (n = 9), Day 1, geometric mean (coefficient of variation), read-out: Cmax First dose",439 nM
same,AUC(0-t),"[11]; 200 mg, 200 mg QW (n = 9), Day 22, AUC0–168h, geometric mean (coefficient of variation), read-out: AUCt Last dose",37.6 µM·h
same,concentration at 48 h,"[11]; 200 mg, 200 mg QW (n = 9), Day 22, geometric mean (coefficient of variation), read-out: C48-h Last dose",302 nM
same,Cmax,"[11]; 200 mg, 200 mg QW (n = 9), Day 22, geometric mean (coefficient of variation), read-out: Cmax Last dose",571 nM
same,Tmax,"[11]; 200 mg, 200 mg QW (n = 9), Day 22, median (min–max), read-out: Tmax Last dose",5 h
same,AUC(0-t),"[11]; 200 mg, 200 mg QW, Day 22, read-out: AUC0–48h",37.6 µM·h
same,Tmax,"[11]; 200 mg, QW dosing (135 and 200 mg), Japanese patients, read-out: median Tmax",4 to 6 h
same,half-life,"[11]; 60 mg QOD (n = 9), harmonic mean ± pseudo SD",71.8 ± 8.9 h
same,half-life,"[11]; 135 mg QW (n = 3), harmonic mean ± pseudo SD",69.3 ± 8.9 h
same,half-life,"[11]; 200 mg QW (n = 9), harmonic mean ± pseudo SD",75.6 ± 9.7 h
